Results: paper PMC10932281, “A Combination of β-Aescin and Newly Synthesized Alkylamidobetaines as Modern Components Eradicating the Biofilms of Multidrug-Resistant Clinical Strains of Candida glabrata” (International Journal of Molecular Sciences, 2024)
In brackets after ≈: the same amount, converted by molar mass.

Experiments:
Format in all cases: cell-based, Candida glabrata
C. glabrata 2586 [1] = test: Interaction of AABs (3 µM) with antifungal agents, modified checkerboard; settings: for Multiplicity factor (MF) with C9: C9 3 µM; for MIC90 of antimycotic combined with C9: C9 at constant 3 µM; for MIC90 of antimycotic combined with C9 / MIC90 of antimycotic combined with C11 / MIC90 of antimycotic combined with C13 / MIC90 of antimycotic combined with C15: dilutions in µg/mL; for Multiplicity factor (MF) with C11: C11 3 µM; for MIC90 of antimycotic combined with C11: C11 at constant 3 µM; for Multiplicity factor (MF) with C13: C13 3 µM; for MIC90 of antimycotic combined with C13: C13 at constant 3 µM; for Multiplicity factor (MF) with C15: C15 3 µM; for MIC90 of antimycotic combined with C15: C15 at constant 3 µM
C. glabrata 2853 [2] = test: as above; settings: for Multiplicity factor (MF) with C9: C9 3 µM; for MIC90 of antimycotic combined with C9: C9 at constant 3 µM; for MIC90 of antimycotic combined with C9 / MIC90 of antimycotic combined with C11 / MIC90 of antimycotic combined with C13 / MIC90 of antimycotic combined with C15: dilutions in µg/mL; for Multiplicity factor (MF) with C11: C11 3 µM; for MIC90 of antimycotic combined with C11: C11 at constant 3 µM; for Multiplicity factor (MF) with C13: C13 3 µM; for MIC90 of antimycotic combined with C13: C13 at constant 3 µM; for Multiplicity factor (MF) with C15: C15 3 µM; for MIC90 of antimycotic combined with C15: C15 at constant 3 µM
[3] = test system: C. glabrata 2586 clinical strain; test: MIC90/MFC, EUCAST broth microdilution; settings: Nakaseomyces glabratus; for MFC: read-out: MFC; for MIC90: read-out: MIC90
C. glabrata 2853 [4] = test: FICI checkerboard, β-aescin with antifungal drugs; settings: combination with β-aescin
C. glabrata 2586 [5] = test: FICI checkerboard, β-aescin with antifungal drugs; settings: for FICI: combination with β-aescin
C. glabrata ATCC 90030 [6] = test: FICI checkerboard, β-aescin with antifungal drugs; settings: combination with β-aescin
C. glabrata ATCC 90030 [7] = test: MIC90/MFC, EUCAST broth microdilution; settings: Nakaseomyces glabratus, ATCC90030, ATCC 90030; for MFC: read-out: MFC; for MIC90: read-out: MIC90
C. glabrata ATCC 90030 [8] = test: Interaction of AABs (3 µM) with antifungal agents, modified checkerboard; settings: for Multiplicity factor (MF) with C9: C9 3 µM, |MF| = MIC90 alone/MIC90 with AAB; for MIC90 of antimycotic combined with C9: C9 at constant 3 µM; for MIC90 of antimycotic combined with C9 / MIC90 of antimycotic combined with C11 / MIC90 of antimycotic combined with C13 / MIC90 of antimycotic combined with C15: dilutions in µg/mL; for Multiplicity factor (MF) with C11: C11 3 µM; for MIC90 of antimycotic combined with C11: C11 at constant 3 µM; for Multiplicity factor (MF) with C13: C13 3 µM; for MIC90 of antimycotic combined with C13: C13 at constant 3 µM; for Multiplicity factor (MF) with C15: C15 3 µM; for MIC90 of antimycotic combined with C15: C15 at constant 3 µM
[9] = test system: C. glabrata 2853 clinical strain; test: MIC90/MFC, EUCAST broth microdilution; settings: Nakaseomyces glabratus; for MFC: read-out: MFC; for MIC90: read-out: MIC90
[10] = test system: C. glabrata strains (ATCC 90030, 2586, 2853); test: Interaction of AABs with antifungal agents, statements for all tested strains together
[11] = test system: C. glabrata strains (ATCC 90030, 2586, 2853); test: MIC, statements for all tested strains together; settings: Nakaseomyces glabratus, ATCC90030

SMILES	Multiplicity factor (MF) with C9 (C. glabrata 2586 [1])	MIC90 of antimycotic combined with C9 (C. glabrata 2586 [1])	Multiplicity factor (MF) with C11 (C. glabrata 2586 [1])	MIC90 of antimycotic combined with C11 (C. glabrata 2586 [1])	Multiplicity factor (MF) with C13 (C. glabrata 2586 [1])	MIC90 of antimycotic combined with C13 (C. glabrata 2586 [1])	Multiplicity factor (MF) with C15 (C. glabrata 2586 [1])	MIC90 of antimycotic combined with C15 (C. glabrata 2586 [1])	Multiplicity factor (MF) with C9 (C. glabrata 2853 [2])	MIC90 of antimycotic combined with C9 (C. glabrata 2853 [2])	Multiplicity factor (MF) with C11 (C. glabrata 2853 [2])	MIC90 of antimycotic combined with C11 (C. glabrata 2853 [2])	Multiplicity factor (MF) with C13 (C. glabrata 2853 [2])	MIC90 of antimycotic combined with C13 (C. glabrata 2853 [2])	Multiplicity factor (MF) with C15 (C. glabrata 2853 [2])	MIC90 of antimycotic combined with C15 (C. glabrata 2853 [2])	MFC [3] [µg/mL]	MIC90 [3] [µg/mL]	FICI (C. glabrata 2853 [4])	FICI (C. glabrata 2586 [5])	also measured
Nc1nc(=O)[nH]cc1F [5-Fluorocytosine]	1	512	1	512	1	512	1	512	1	256	1	256	1	256	1	256	1020 (≈ 7930 µM)	512 (≈ 3970 µM)	1.5	1.5	FICI (C. glabrata ATCC 90030 [6]): 1.5; MFC (C. glabrata ATCC 90030 [7]): 1020 µg/mL (≈ 7930 µM); MIC90 (C. glabrata ATCC 90030 [7]): 512 µg/mL (≈ 3970 µM); Multiplicity factor (MF) with C9 (C. glabrata ATCC 90030 [8]): 1; MIC90 of antimycotic combined with C9 (C. glabrata ATCC 90030 [8]): 512; Multiplicity factor (MF) with C11 (C. glabrata ATCC 90030 [8]): 1; MIC90 of antimycotic combined with C11 (C. glabrata ATCC 90030 [8]): 512; Multiplicity factor (MF) with C13 (C. glabrata ATCC 90030 [8]): 1; MIC90 of antimycotic combined with C13 (C. glabrata ATCC 90030 [8]): 512; Multiplicity factor (MF) with C15 (C. glabrata ATCC 90030 [8]): 1; MIC90 of antimycotic combined with C15 (C. glabrata ATCC 90030 [8]): 512; MFC [9]: 512 µg/mL (≈ 3970 µM); MIC90 [9]: 256 µg/mL (≈ 1980 µM); MF with AABs ([10]; all of the tested C. glabrata strains, AABs 3 µM): 1
C[C@@H]1[C@H](O)[C@@H](C)/C=C/C=C/C=C/C=C/C=C/C=C/C=C/[C@H](O[C@@H]2O[C@H](C)[C@@H](O)[C@H](N)[C@@H]2O)C[C@@H]2O[C@](O)(C[C@@H](O)C[C@@H](O)[C@H](O)CC[C@@H](O)C[C@@H](O)CC(=O)O[C@H]1C)C[C@H](O)[C@H]2C(=O)O [Amphotericin B]	2	0.12	2	0.12	2	0.12	4	0.06	1	0.25	2	0.12	2	0.12	4	0.06	1 (≈ 1.08 µM)	0.25 (≈ 0.271 µM)	2.5	1	Type of interaction with β-AE (by FICI) (C. glabrata 2586 [5]): additive; FICI (C. glabrata 2586 [5]; listed as amphotericin B): 1.0; FICI (C. glabrata ATCC 90030 [6]): 1.5; MFC (C. glabrata ATCC 90030 [7]): 0.5 µg/mL (≈ 0.541 µM); MIC90 (C. glabrata ATCC 90030 [7]): 0.25 µg/mL (≈ 0.271 µM); Multiplicity factor (MF) with C9 (C. glabrata ATCC 90030 [8]): 1; MIC90 of antimycotic combined with C9 (C. glabrata ATCC 90030 [8]): 0.25; Multiplicity factor (MF) with C11 (C. glabrata ATCC 90030 [8]): 2; MIC90 of antimycotic combined with C11 (C. glabrata ATCC 90030 [8]): 0.12; Multiplicity factor (MF) with C13 (C. glabrata ATCC 90030 [8]): 2; MIC90 of antimycotic combined with C13 (C. glabrata ATCC 90030 [8]): 0.12; Multiplicity factor (MF) with C15 (C. glabrata ATCC 90030 [8]): 4; MIC90 of antimycotic combined with C15 (C. glabrata ATCC 90030 [8]): 0.06; MFC [9]: 0.5 µg/mL (≈ 0.541 µM); MIC90 [9]: 0.25 µg/mL (≈ 0.271 µM); MIC [11]: 0.25 µg/mL (≈ 0.271 µM); Fold increase of activity with C11 ([10]; all the tested strains, C11 3 µM): 2 fold; Fold increase of activity with C13 ([10]; all the tested strains, C13 3 µM): 2 fold; Fold increase of activity with C15 ([10]; all the tested strains, C15 3 µM): 4 fold
